Data as given in paper PMC9686139, “Furanoditerpenes from Spongia (Spongia) tubulifera Display Mitochondrial-Mediated Neuroprotective Effects by Targeting Cyclophilin D” (ACS Chemical Neuroscience, 2022).

Experiments:
SH-SY5Y cells [1] = test: Cell viability in H2O2 oxidative stress model, MTT assay; type: cell-based, human; conditions: 150 μM H2O2, 6 h; 0.001-1 μM
Protocol: First, the capacity of 1–5 to improve cell survival under oxidative stress conditions was determined with the MTT assay (Figure 2). […] When cells were injured with the oxidant specie, a decrease in the cell viability of 23.6 ± 3.5% (p < 0.05) was observed.
Figure 2 Effect of compounds on the cell viability of SH-SY5Y cells. Compounds were added to human neuroblastoma cells for 6 h with and without 150 μM H2O2, and cell viability was evaluated with the MTT assay. Results of (a) compound 1, (b) compound 2, (c) compound 3, (d) compound 4, and (e) compound 5. Vitamin E (Vit E) at 25 μM was used as a positive control in oxidative stress assays. Mean ± standard error of the mean (SEM) of three experiments performed in triplicate. Data expressed as the percentage of control cells, compared by one-way analysis of variance (ANOVA) and Dunnett’s tests. ^#p < 0.05 compared to untreated control cells. *p < 0.05 and **p < 0.01 compared to cells treated with H2O2 alone. […]
The ability of compounds to protect cell viability from H2O2 was evaluated with 3-(4,5-dimethylthiazol-2-yl)-2,5-diphenyltetrazolium bromide (MTT) test. […] The absorbance of formazan crystals was measured at 595 nm with a plate reader. Saponin at 40 mg/mL was used as the death control, and its absorbance value was subtracted from the other data.

SH-SY5Y cells [2] = test: Mitochondrial membrane potential (ΔΨm), TMRM dye; type: cell-based, human; conditions: 150 μM H2O2, 6 h; compound 0.001 μM; percentage of control cells
Protocol: Since mitochondria are key players in neurodegeneration, acting as main producers and targets of ROS,[16] mitochondrial function was determined by analyzing the mitochondrial membrane potential (ΔΨm) with the fluorescent dye tetramethylrhodamine methyl ester (TMRM).
Figure 3 Effect of furanoditerpenes on ΔΨm of human neuroblastoma cells. Cells were treated for 6 h with S. tubulifera metabolites with and without 150 μM H2O2, and ΔΨm was determined with the TMRM dye. (a) Compound 1, (b) compound 2, (c) compound 3, (d) compound 4, and (e) compound 5 effects. Vitamin E (Vit E) at 25 μM was used as a positive control in oxidative stress assays. Data expressed as the percentage of control cells. Mean ± SEM of three experiments performed in triplicate. Statistical differences determined by one-way ANOVA and Dunnett’s tests. ^#p < 0.05 compared to untreated control cells. *p < 0.05, **p < 0.01, and ***p < 0.01 compared to cells treated with H2O2 alone.
To determine the neuroprotective effects of compounds, SH-SY5Y cells were seeded in 384-well plates at a density of 2.5 × 10^4 cells per well. After 24 h, cells were treated with the metabolites at nontoxic concentrations (0.001–1 μM) and 150 μM H2O2 for 6 h. […]
The effects of compounds in ΔΨm were analyzed with the fluorescent dye TMRM. […] The fluorescence was read in a plate reader at 535 nm excitation and 590 nm emission. […]

SH-SY5Y cells [3] = test: ROS intracellular levels, carboxy-H2DCFDA; type: cell-based, human; conditions: for effect on ROS content: cotreatment with 150 μM H2O2, 6 h
Protocol: Next, the capacity of S. tubulifera metabolites to decrease ROS intracellular levels was evaluated (Figure 4). […] Regarding the oxidative stress model, H2O2 augmented the levels of oxidant molecules up to 125.1 ± 2.4% (p < 0.01) and the known antioxidant Vit E, used as a positive control, induced a reduction in ROS release of 24% with respect to cells treated only with H2O2 (p < 0.05).
Figure 4 ROS intracellular levels after treatment with compounds. Furanoditerpenes were added for 6 h in the absence and presence of 150 μM H2O2. Then, the ROS content was measured with the fluorescent dye 5-(and-6)-carboxy-2′,7′-dichlorodihydrofluorescein diacetate (carboxy-H2DCFDA). Results from (a) 1, (b) 2, (c) 3, (d) 4, and (e) 5. Vitamin E (Vit E) at 25 μM was used as a positive control. Data expressed as the percentage of untreated control cells. Mean ± SEM of three experiments performed in triplicate. Statistical differences determined by one-way ANOVA test followed by Dunnett’s post hoc test. ^##p < 0.01 compared to control cells. *p < 0.05, **p < 0.01, and ***p < 0.01 compared to H2O2 control.
(§1) For these experiments, cells were seeded in 384-well plates and treated as described above. All of the assays were carried out as previously described.[15]
The fluorescent dye 5-(and-6)-carboxy-2′,7′-dichlorodihydrofluorescein diacetate (carboxy-H2DCFDA) was used to evaluate ROS levels. After treatment with compounds and H2O2, cells were washed twice with serum-free medium. Next, cells were loaded with 20 μM carboxy-H2DCFDA dissolved in serum-free medium, and the plate was incubated for 1 h at 37 °C and 300 rpm. Then, 100 μL of PBS were added to each well for 30 min at 37 °C and 300 rpm. After this incubation, the fluorescence was read at […].

SH-SY5Y cells [4] = test: GSH content, Thiol Tracker Violet; type: cell-based, human
Protocol: To confirm the antioxidant properties of S. tubulifera compounds, the levels of the most important nonenzymatic antioxidant of cells, glutathione (GSH), were assessed. […] Regarding diterpene 2, an increase in the nonenzymatic antioxidant was observed when cells were cotreated with H2O2 and this compound at 0.001 and 1 μM (p < 0.05) (Figure 5b). No effects were found after the addition of 3 (Figure 5c), but 4 and 5 presented interesting results (Figure 5d,e).
Figure 5 Effect of S. tubulifera metabolites in the GSH content of human neuroblastoma cells. SH-SY5Y cells were treated with compounds for 6 h with and without 150 μM H2O2. GSH levels were monitored with Thiol Tracker Violet dye. (a) Compound 1, (b) compound 2, (c) compound 3, (d) compound 4, and (e) compound 5 results. Vitamin E (Vit E) at 25 μM was used as a positive control. Mean ± SEM of three experiments performed in triplicate. Data presented as the percentage of untreated control cells and compared by one-way ANOVA and Dunnett’s tests. ^##p < 0.01 compared to control cells. *p < 0.05 compared to cells treated with H2O2 alone.
as §1
Thiol Tracker Violet was used to measure intracellular GSH levels, following the manufacturer’s instructions. Briefly, human neuroblastoma cells were rinsed twice with PBS and the fluorescence dye at 10 μM was added. The plate was incubated for 30 min at 37 °C and 300 rpm, and the fluorescence was measured at 404 nm excitation and 526 nm emission in a plate reader. All experiments were performed three independent times in triplicate.

human cancer cell lines = tested on: human cancer cell lines; parameters: method as in PMID 31315183; conditions: previous studies; cited from earlier work
CypD = CypD expression by Western blot; conditions: compound 0.001 μM + 150 μM H2O2, 6 h; % of H2O2 control cells
Text: (b) CypD expression after treatment with S. tubulifera metabolites. (c) Effect of compounds on the CypD expression under oxidative stress conditions. […] Protein band expression was normalized by actin levels. Results are mean ± SEM of three replicates carried out in duplicate. Data expressed as the percentage of untreated control cells and H2O2 control. Values compared by one-way ANOVA and Dunnett’s tests. ^#p < 0.05 and ^##p < 0.01 compared to control cells. *p < 0.05 and **p < 0.01 compared to cells treated with H2O2 alone.
In this context, the expression of this protein was analyzed after treatment with compounds. CypD cytosolic levels were evaluated after treatment with 1–5 alone for 6 h and after the coaddition of diterpenes and H2O2 to get a complete insight into diterpene mitochondria-related effects.
SH-SY5Y cells were cultured in 12-well plates at 1 × 10^6 cells per well and allowed to settle down for 24 h.
Cells were washed twice with ice-cold PBS, and a hypotonic solution was added (20 mM tris–HCl pH 7.4, 10 mM NaCl, and 3 mM MgCl2, containing phosphatase and protease inhibitor cocktail). Cells were incubated for 15 min on ice and centrifuged at 3000 rpm and 4 °C for 15 min. The supernatant was collected as the cytosolic fraction, and protein concentration was quantified with the Direct Detect instrument (Merck Millipore, Darmstadt, Germany).[15]
Electrophoresis was resolved in 4–20% sodium dodecyl sulfate polyacrylamide gels (Biorad, Hercules, CA), containing 15 μg of cytosolic protein from each sample. The Trans-Blot semidry transfer cell (Biorad) was used to transfer proteins to poly(vinylidene difluoride) (PVDF) membranes (Merck Millipore). Snap i.d. system (Merck Millipore) was used for membrane blocking and antibody incubation. […] Immunoreactive bands were detected with Supersignal West Pico Luminiscent Substrate and Supersignal West Femto Maximum Sensitivity Substrate. Diversity GeneSnap system and software (Syngene, Cambridge, U.K.) were used for protein band detection. Experiments were performed three independent times in duplicate.

CypA = CypA expression by Western blot; conditions: 0.001 μM, 6 h; physiological and oxidative stress (150 μM H2O2) conditions
Protocol: (§2) Human neuroblastoma cells were treated with compounds at 0.001 μM for 6 h, and Cyps expression was determined by Western blot (Figure 10). […] SH-SY5Y cells were treated with 1–5 at 0.001 μM for 6 h, and their effects on Cyps expression were determined by Western blot. […] Protein band expression was normalized by actin levels. Results expressed as the percentage of untreated control cells or as the percentage of H2O2 control. Mean ± SEM of three replicates carried out in duplicate. Statistical differences determined by one-way ANOVA and Dunnett’s tests. ^#p < 0.05 and ^##p < 0.01 compared to control cells. *p < 0.05, **p < 0.01, and ***p < 0.01 compared to cells treated with H2O2 alone. […]
(§3) Cells were washed twice with ice-cold PBS, and a hypotonic solution was added (20 mM tris–HCl pH 7.4, 10 mM NaCl, and 3 mM MgCl2, containing phosphatase and protease inhibitor cocktail). […] The supernatant was collected as the cytosolic fraction, and protein concentration was quantified with the Direct Detect instrument (Merck Millipore, Darmstadt, Germany).[15]
(§4) Electrophoresis was resolved in 4–20% sodium dodecyl sulfate polyacrylamide gels (Biorad, Hercules, CA), containing 15 μg of cytosolic protein from each sample. […] Immunoreactive bands were detected with Supersignal West Pico Luminiscent Substrate and Supersignal West Femto Maximum Sensitivity Substrate. […]

human CypD = human CypD (Homo sapiens, UniProt P30405); test: Surface plasmon resonance binding to immobilized CypD; conditions: for selectivity between CypD and CypA (KD values): CypD versus CypA; for kon: read-out: ka, CypD
human CypD, sequence (P30405 30-207): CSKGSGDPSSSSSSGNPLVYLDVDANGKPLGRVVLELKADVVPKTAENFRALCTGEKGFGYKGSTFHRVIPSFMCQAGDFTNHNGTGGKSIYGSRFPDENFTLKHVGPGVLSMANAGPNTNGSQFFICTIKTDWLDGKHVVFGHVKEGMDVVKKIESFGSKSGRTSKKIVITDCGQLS
Protocol: With this objective, surface plasmon resonance (SPR) experiments were performed. CypD was immobilized in the sensor surface as a ligand, and 1–5 were injected as analytes. […] For immobilization, amine groups were activated with 1-ethyl-3-(3-dimethylaminopropyl)carbodiimide hydrochloride (EDC) and N-hydroxysuccinimide (NHS) and 50 μg/mL of human CypD dissolved in 5 mM sodium acetate (pH 4.5) was added. […] All of the assays were carried out with phosphate-buffered saline (PBS)—0.05% Tween (pH 7.2) as the running buffer, with a flow rate of 20 μL/min at 24 °C.
The left panels present association curves obtained by the addition of compounds over immobilized CypD and subtraction of their respective solvent control. The right panels show fitting curves for equilibrium binding. Representative graphs of one independent replicate. […] All injections were performed using PBS, 0.05% Tween (pH 7.2) as the running buffer. Kinetic equilibrium dissociation constants (KD) and fitting curves were obtained with TraceDrawer software.
(§5) SPR measurements were performed using the MP-SPR Navi 210A VASA instrument with SPR Navi Control software (BioNavis, Tampere, Finland). All of the analyses were carried out in three-dimensional (3D) carboxymethyl dextran hydrogel-coated (CMD-3DM) sensors (BioNavis). PBS, 0.05% Tween (pH 7.2) was used as the running buffer for sensor activation, protein immobilization, and analyte injection. All buffers were degassed and filtered by 0.22 μm before use. The flow rate and temperature were set at 20 μL/min and 24 °C, respectively. A commercial Amine Coupling Kit (Xantec bioanalytics GmbH, Düsseldorf, Germany) was used for sensor activation and Cyps immobilization. The chip surface was preconditioned with 2 M NaCl and 0.01 M NaOH. Then, the surface was activated by the addition of 0.2 M 1-ethyl-3-(3-dimethylaminopropyl)carbodiimide hydrochloride (EDC) and 0.05 M N-hydroxysuccinimide (NHS). After activation, 50 μg/mL of CypA or CypD dissolved in 5 mM sodium acetate buffer (pH 4.5) were injected for immobilization on the sensor surface. […] Compound injections were performed in serial mode, and the reference channel signal was subtracted from the analyte sensorgram. Data were processed with MP-SPR Navi Data Viewer (BioNavis), and KD values were obtained using the 1:1 Langmuir model with mass transport considerations of TraceDrawer software (RidgeView Instruments Ab, Uppsala, Sweden). All of the experiments were performed three independent times.

Human CypA = Human CypA (Homo sapiens, UniProt P62937); test: Surface plasmon resonance binding to immobilized CypA; conditions: for Kd: CypA, SPR, 1:1 Langmuir model, PBS-T pH 7.2, 24 °C; for kon: read-out: ka, CypA
Human CypA, sequence (P62937 whole entry): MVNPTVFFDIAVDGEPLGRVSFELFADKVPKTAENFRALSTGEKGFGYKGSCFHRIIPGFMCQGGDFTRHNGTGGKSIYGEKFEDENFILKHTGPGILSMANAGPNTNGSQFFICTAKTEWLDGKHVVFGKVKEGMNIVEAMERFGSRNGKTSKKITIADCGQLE
Protocol: The protein was immobilized on the sensor surface by amino coupling, as described above (Figure S7), and compounds at several concentrations were added. The same conditions set for CypD were used for CypA experiments, with a flow rate of 20 μL/min and PBS-T (pH 7.2) as the running buffer.
Figure 9 Binding of compounds to CypA measured by surface plasmon resonance. The left panels present association curves obtained by the addition of compounds over immobilized CypA and subtraction of their respective vehicle signal. The right panels show fitting curves for equilibrium binding. Representative graphs of one independent replicate. […] Kinetic equilibrium dissociation constants (KD) and fitting curves were obtained with TraceDrawer software.
as §5

CypC = CypC expression by Western blot; conditions: 0.001 μM + 150 μM H2O2, 6 h; % of H2O2 control
Protocol: as §2, §3, §4

CypB = conditions: compound alone 0.001 μM, 6 h; % of untreated control cells
Protocol: Before starting the experiments, antibody specificity was determined due to the conserved structures along Cyps. […] Human neuroblastoma cells were treated with compounds at 0.001 μM for 6 h, and Cyps expression was determined by Western blot (Figure 10).
SH-SY5Y cells were treated with 1–5 at 0.001 μM for 6 h, and their effects on Cyps expression were determined by Western blot. […] Protein band expression was normalized by actin levels. Results expressed as the percentage of untreated control cells or as the percentage of H2O2 control. Mean ± SEM of three replicates carried out in duplicate. Statistical differences determined by one-way ANOVA and Dunnett’s tests. ^#p < 0.05 and ^##p < 0.01 compared to control cells. *p < 0.05, **p < 0.01, and ***p < 0.01 compared to cells treated with H2O2 alone.
SH-SY5Y cells were cultured in 12-well plates at 1 × 10^6 cells per well and allowed to settle down for 24 h. Then, cells were treated with compounds at 0.001 μM for 6 h and oxidative damage was induced with 150 μM H2O2.
Cells were washed twice with ice-cold PBS, and a hypotonic solution was added (20 mM tris–HCl pH 7.4, 10 mM NaCl, and 3 mM MgCl2, containing phosphatase and protease inhibitor cocktail). […] The supernatant was collected as the cytosolic fraction, and protein concentration was quantified with the Direct Detect instrument (Merck Millipore, Darmstadt, Germany).[15] […]

[5] = parameters: method as in doi:10.1246/cl.1987.1687; conditions: previous studies; cited from earlier work
[6] = tested on: mitochondrial permeability transition pore (mPTP); test: mPTP opening, calcein-AM/CoCl2 flow cytometry; conditions: 0.001 μM, 15 min pretreatment, TBHP 3 min
Protocol: SH-SY5Y cells were treated for 15 min with 1–5, and 1 mM tert-butyl hydroperoxide (TBHP) was used to open the pore. Cells were loaded with calcein-AM, which accumulates in cytosol and cell compartments and with CoCl2 that quenches cytosolic fluorescence but not the mitochondrial signal.[17] Then, fluorescence was analyzed by flow cytometry (Figure 6a). […] (a) Analysis of mPTP opening. Cells were treated with compounds at 0.001 μM for 15 min, and pore opening was induced with 1 mM TBHP. Calcein-AM and CoCl2 were used to measure mPTP aperture by flow cytometry. […] Values are presented as the percentage of control cells. Data are mean ± SEM of three independent experiments. Statistical differences determined by one-way ANOVA and Dunnett’s tests. ^###p < 0.001 compared to control cells. *p < 0.05 and **p < 0.01 compared to cells treated only with TBHP.
The inhibition of mPTP by compounds was determined with the MitoProbe Transition Pore Assay Kit, as previously described.[21] For this assay, cells were seeded in 12-well plates at 5 × 10^5 cells per well and allowed to grow for 24 h. Then, SH-SY5Y cells were detached with Detachin solution (Genlatis, San Diego), washed with PBS, and resuspended in PBS buffer with 0.6 mM CaCl2. Cells were loaded with 0.01 μM calcein-AM and incubated at 37 °C for 15 min. Then, 0.4 mM CoCl2 and compounds at 0.001 μM were added and cells were incubated for 15 min at 37 °C. After this incubation, cells were centrifuged, resuspended in 100 μL of calcium-free PBS, and kept on ice. Finally, TBHP at 1 mM was added for 3 min to the cells to induce the pore opening. […] The fluorescence of 10 000 events was analyzed with IDEAS Application vs 6.0 (Amnis Corporation, Luminex Corp).

Kd (Human CypA) [µM] | kon (Human CypA) [M⁻¹ s⁻¹] | SMILES | cytotoxicity (human cancer cell lines) | CypD expression under oxidative damage (CypD) | selectivity between CypD and CypA (KD values) (human CypD; SPR) | Kd (human CypD) [µM] | kon (human CypD) [M⁻¹ s⁻¹] | other results
15.2 ± 1.31 | 682 | CC1(C)[C@@H](O)C(=O)C[C@]2(C)[C@H]3CCc4cocc4[C@]3(C)CC[C@@H]12 [Compound 1] | weak cytotoxicity | about 54% | selective toward CypA |  |  | protection of cell viability from H2O2 damage (SH-SY5Y cells [1]): not able to protect; ΔΨm (SH-SY5Y cells [2]): 96.7 ± 5.4%; effect on ROS content (SH-SY5Y cells [3]; all four concentrations 0.001-1 μM): significant decrease; effect on GSH content (SH-SY5Y cells [4]; compound alone and with 150 μM H2O2, 6 h): did not affected the GSH content; effect on CypA expression (CypA): decreased its expression; KD (kinetic equilibrium dissociation constant), CypD (human CypD; SPR, 1:1 Langmuir model, PBS-0.05% Tween pH 7.2, 24 °C): No binding; ka, CypD (human CypD; SPR, Table S1): No binding; kd, CypD (human CypD; SPR, Table S1): No binding; binding to CypD (human CypD; SPR, up to 50 μM): No binding; SPR signal, CypA (Human CypA; at 50 μM): 9.9 mdeg
14.7 ± 1.08 | 1320 | CC1(C)C(=O)C(O)=C[C@]2(C)[C@H]3CCc4cocc4[C@]3(C)CC[C@@H]12 [Compound 2] |  | 37.9 ± 17.9% | selectivity toward the mitochondrial isoform | 2.53 ± 0.006 | 10000 | ROS levels (SH-SY5Y cells [3]; 150 μM H2O2, 6 h, compound 0.1 μM, percentage of untreated control cells): 89.9 ± 5.7%; effect on ROS content (SH-SY5Y cells [3]; at 0.001, 0.1 and 1 μM): reduced the levels; effect on GSH content (SH-SY5Y cells [4]; cotreated with 150 μM H2O2, 6 h, at 0.001 and 1 μM): increase; CypC expression under oxidative injury (CypC): 24.3 ± 2.9%

SMILES | Kd (Human CypA) [µM] | kon (Human CypA) [M⁻¹ s⁻¹] | cytotoxicity (human cancer cell lines) | CypD expression under oxidative damage (CypD) | selectivity between CypD and CypA (KD values) (human CypD; SPR) | Kd (human CypD) [µM] | kon (human CypD) [M⁻¹ s⁻¹] | other results
C[C@]12CC(=O)[C@H](O)[C@](C)(CO)[C@@H]1CC[C@@]1(C)c3cocc3CC[C@H]21 [Compound 4, epispongiadiol] | 27.4 ± 3.68 | 861 | weak cytotoxicity | about 54% |  | 30.4 ± 0.87 | 738 | CypB expression (CypB): 48.54 ± 11.4%; antiviral activity [5]: antiviral activity; inhibition of mPTP opening after oxidative injury [6]: able to inhibit mPTP opening
